ChEMBL document CHEMBL5705888, “Substrate specificity and inhibitors of LRRK2, a protein kinase mutated in Parkinson's disease” (Biochem J, 2009)

Assays:
[1] = target: RAC-alpha serine/threonine-protein kinase (Homo sapiens) (UniProt P31749); test: Inhibition of PKBalpha (unknown origin) at 1 uM incubated for 30 mins in presence of [gamma-33P]ATP by multidrop micro reagent based assay relative to control; values are per cent of control
[2] = target: T1, Eukaryotic elongation factor 2 kinase (Homo sapiens) (UniProt O00418); test: Inhibition of EF2K (unknown origin) at 1 uM incubated for 30 mins in presence of [gamma-33P]ATP by multidrop micro reagent based assay relative to control
T1 sequence (whole entry): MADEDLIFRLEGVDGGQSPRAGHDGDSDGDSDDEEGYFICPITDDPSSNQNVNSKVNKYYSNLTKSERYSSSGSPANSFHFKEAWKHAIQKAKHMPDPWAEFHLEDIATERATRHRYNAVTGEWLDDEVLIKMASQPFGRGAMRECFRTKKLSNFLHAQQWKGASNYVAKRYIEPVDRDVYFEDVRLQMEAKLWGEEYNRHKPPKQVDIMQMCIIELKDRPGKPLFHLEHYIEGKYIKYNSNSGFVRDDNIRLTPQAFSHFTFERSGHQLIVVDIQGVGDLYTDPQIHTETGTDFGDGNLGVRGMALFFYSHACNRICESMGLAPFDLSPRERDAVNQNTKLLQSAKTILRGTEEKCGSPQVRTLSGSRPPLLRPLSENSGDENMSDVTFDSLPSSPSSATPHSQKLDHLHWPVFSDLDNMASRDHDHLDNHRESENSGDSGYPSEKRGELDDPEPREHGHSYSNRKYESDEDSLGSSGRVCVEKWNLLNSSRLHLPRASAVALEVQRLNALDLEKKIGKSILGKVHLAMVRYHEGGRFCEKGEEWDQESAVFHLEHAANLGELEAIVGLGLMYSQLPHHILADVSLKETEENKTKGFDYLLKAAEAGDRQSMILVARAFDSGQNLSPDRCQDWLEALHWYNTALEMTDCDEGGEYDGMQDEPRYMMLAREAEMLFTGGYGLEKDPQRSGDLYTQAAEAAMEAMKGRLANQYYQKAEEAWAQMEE

[3] = target: Ribosomal protein S6 kinase beta-1 (Homo sapiens) (UniProt P23443); test: Inhibition of S6K1 (unknown origin) at 1 uM incubated for 30 mins in presence of [gamma-33P]ATP by multidrop micro reagent based assay relative to control; values are per cent of control
Ribosomal protein S6 kinase beta-1 (Homo sapiens), sequence (P23443 whole entry, looked up): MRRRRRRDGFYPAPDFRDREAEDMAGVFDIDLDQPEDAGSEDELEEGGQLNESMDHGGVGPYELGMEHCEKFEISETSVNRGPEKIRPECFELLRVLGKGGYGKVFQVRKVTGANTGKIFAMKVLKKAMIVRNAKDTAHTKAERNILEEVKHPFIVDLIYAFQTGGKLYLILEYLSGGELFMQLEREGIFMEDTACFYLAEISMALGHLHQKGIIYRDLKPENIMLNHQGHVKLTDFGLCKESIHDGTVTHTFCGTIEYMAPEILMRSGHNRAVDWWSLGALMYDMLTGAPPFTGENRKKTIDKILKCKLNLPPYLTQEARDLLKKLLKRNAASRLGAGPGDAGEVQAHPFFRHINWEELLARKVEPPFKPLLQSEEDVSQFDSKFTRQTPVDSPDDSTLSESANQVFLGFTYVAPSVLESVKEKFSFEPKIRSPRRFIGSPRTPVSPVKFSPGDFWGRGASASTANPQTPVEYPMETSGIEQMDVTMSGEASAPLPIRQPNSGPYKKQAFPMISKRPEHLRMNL

[4] = target: Mitogen-activated protein kinase kinase kinase 11 (Homo sapiens) (UniProt Q16584); test: Inhibition of MLK3 (unknown origin) at 1 uM incubated for 30 mins in presence of [gamma-33P]ATP by multidrop micro reagent based assay relative to control; values are per cent of control
Mitogen-activated protein kinase kinase kinase 11 (Homo sapiens), sequence (Q16584 whole entry, looked up): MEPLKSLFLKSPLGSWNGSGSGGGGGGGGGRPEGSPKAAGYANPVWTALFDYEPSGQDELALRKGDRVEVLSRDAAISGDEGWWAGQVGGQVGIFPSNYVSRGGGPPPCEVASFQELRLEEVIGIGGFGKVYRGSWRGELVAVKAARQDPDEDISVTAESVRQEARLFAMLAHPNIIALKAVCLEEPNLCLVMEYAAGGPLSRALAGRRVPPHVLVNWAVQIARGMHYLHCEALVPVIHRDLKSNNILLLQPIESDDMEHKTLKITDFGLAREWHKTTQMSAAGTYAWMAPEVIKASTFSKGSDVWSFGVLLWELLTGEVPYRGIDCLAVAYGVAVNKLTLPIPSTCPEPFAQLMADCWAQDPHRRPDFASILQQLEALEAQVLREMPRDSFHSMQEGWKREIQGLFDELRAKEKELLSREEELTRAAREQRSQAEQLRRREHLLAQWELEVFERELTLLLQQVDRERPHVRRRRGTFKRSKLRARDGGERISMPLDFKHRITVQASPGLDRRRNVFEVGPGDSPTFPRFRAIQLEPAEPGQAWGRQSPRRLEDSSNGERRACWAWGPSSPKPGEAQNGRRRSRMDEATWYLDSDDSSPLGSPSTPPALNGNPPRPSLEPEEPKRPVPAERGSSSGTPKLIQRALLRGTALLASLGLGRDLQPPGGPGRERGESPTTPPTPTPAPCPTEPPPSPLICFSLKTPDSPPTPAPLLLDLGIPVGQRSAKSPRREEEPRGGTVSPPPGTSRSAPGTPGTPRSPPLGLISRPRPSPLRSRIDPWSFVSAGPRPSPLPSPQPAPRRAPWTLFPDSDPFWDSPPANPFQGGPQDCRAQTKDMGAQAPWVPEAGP

[5] = target: T2, Protein kinase C zeta type (Homo sapiens) (UniProt Q05513); test: Inhibition of PKCzeta (unknown origin) at 1 uM incubated for 30 mins in presence of [gamma-33P]ATP by multidrop micro reagent based assay relative to control; values are per cent of control
T2 sequence (whole entry): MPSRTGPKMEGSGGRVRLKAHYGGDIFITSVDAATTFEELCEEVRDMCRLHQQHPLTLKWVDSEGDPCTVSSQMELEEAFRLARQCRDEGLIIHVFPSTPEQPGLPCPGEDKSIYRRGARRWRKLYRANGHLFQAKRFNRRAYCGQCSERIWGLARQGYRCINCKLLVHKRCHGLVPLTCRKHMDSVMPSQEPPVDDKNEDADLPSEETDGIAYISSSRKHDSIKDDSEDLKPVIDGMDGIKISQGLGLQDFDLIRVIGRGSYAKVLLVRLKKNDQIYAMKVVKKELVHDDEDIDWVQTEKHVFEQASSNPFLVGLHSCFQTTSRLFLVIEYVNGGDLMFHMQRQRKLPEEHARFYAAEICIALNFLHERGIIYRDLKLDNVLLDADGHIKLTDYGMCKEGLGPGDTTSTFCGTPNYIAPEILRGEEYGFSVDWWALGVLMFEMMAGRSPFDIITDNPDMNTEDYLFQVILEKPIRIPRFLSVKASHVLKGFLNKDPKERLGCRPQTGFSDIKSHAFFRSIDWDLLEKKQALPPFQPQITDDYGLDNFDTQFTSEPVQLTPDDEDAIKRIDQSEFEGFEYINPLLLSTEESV

[6] = target: Ephrin type-A receptor 2 (Homo sapiens) (UniProt P29317); test: Inhibition of EPH A2 (unknown origin) at 1 uM incubated for 30 mins in presence of [gamma-33P]ATP by multidrop micro reagent based assay relative to control; values are per cent of control
Ephrin type-A receptor 2 (Homo sapiens), sequence (P29317 whole entry): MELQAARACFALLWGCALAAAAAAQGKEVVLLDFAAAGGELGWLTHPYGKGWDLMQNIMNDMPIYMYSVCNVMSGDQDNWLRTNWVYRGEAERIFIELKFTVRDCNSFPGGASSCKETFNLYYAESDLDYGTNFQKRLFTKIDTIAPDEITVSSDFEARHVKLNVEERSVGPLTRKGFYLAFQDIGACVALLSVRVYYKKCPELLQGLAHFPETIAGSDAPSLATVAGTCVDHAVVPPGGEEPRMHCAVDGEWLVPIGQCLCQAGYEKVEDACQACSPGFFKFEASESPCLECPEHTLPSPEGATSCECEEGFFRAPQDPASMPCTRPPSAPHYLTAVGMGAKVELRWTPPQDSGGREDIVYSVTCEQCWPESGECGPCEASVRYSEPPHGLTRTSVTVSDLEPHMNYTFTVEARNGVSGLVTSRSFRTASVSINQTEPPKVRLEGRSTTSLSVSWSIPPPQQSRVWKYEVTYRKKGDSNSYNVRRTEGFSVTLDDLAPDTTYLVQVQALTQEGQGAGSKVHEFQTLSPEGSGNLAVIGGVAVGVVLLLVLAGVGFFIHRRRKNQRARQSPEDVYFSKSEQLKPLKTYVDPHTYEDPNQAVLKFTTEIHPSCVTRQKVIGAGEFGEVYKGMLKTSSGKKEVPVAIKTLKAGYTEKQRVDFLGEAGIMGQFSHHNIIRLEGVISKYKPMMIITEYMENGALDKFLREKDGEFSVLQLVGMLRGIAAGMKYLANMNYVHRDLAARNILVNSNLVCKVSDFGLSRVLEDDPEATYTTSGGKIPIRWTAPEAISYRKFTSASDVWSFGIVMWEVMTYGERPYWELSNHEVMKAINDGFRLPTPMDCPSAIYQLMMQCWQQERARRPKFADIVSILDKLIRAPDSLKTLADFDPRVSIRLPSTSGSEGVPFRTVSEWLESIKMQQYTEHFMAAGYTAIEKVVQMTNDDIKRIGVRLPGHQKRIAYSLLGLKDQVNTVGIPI

[7] = target: T3, Inhibitor of nuclear factor kappa-B kinase subunit epsilon (Homo sapiens) (UniProt Q14164); test: Inhibition of IKKepsilon (unknown origin) at 1 uM incubated for 30 mins in presence of [gamma-33P]ATP by multidrop micro reagent based assay relative to control
T3 sequence (whole entry): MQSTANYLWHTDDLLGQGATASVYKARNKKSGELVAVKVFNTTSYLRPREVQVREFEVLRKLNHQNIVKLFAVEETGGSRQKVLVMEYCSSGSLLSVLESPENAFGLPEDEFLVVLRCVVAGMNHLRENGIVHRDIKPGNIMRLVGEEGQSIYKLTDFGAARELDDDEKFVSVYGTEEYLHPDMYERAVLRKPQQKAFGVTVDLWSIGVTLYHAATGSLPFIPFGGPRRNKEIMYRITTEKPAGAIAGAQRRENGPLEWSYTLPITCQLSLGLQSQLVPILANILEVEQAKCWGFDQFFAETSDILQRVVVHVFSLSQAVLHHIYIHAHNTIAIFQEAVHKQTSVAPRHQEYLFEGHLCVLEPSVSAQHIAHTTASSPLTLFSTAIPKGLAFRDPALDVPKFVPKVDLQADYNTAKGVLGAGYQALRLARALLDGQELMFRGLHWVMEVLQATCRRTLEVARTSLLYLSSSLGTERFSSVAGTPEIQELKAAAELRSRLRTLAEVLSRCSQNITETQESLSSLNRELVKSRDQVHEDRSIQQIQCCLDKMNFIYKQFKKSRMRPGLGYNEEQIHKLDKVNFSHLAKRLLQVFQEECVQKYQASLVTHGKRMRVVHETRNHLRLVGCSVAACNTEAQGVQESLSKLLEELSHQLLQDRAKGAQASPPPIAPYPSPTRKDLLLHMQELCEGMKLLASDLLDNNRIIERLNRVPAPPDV

[8] = target: cAMP-dependent protein kinase (PKA) (Homo sapiens) (UniProt P22694+P17612+P22612); test: Inhibition of PKA (unknown origin) at 1 uM incubated for 30 mins in presence of [gamma-33P]ATP by multidrop micro reagent based assay relative to control; values are per cent of control
[9] = target: Serine/threonine-protein kinase PLK1 (Homo sapiens) (UniProt P53350); test: Inhibition of PLK1 (unknown origin) at 1 uM incubated for 30 mins in presence of [gamma-33P]ATP by multidrop micro reagent based assay relative to control; values are per cent of control
Serine/threonine-protein kinase PLK1 (Homo sapiens), sequence (P53350 whole entry): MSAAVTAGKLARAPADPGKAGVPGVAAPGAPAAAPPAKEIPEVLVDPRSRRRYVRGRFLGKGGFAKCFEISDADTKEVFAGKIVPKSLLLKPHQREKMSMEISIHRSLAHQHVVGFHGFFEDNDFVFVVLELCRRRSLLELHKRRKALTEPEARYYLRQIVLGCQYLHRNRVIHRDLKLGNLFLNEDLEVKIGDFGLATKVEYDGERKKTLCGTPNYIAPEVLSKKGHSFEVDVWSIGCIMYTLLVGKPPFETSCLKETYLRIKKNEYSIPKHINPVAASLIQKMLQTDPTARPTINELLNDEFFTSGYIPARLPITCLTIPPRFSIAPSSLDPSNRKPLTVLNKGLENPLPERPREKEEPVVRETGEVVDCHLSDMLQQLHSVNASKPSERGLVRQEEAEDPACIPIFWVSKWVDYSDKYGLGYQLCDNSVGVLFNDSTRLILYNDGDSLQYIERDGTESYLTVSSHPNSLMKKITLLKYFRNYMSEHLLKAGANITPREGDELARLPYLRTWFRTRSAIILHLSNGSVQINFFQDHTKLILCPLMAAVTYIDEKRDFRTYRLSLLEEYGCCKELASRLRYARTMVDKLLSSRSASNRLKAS

RAC-alpha serine/threonine-protein kinase (Homo sapiens), sequence (P31749 whole entry): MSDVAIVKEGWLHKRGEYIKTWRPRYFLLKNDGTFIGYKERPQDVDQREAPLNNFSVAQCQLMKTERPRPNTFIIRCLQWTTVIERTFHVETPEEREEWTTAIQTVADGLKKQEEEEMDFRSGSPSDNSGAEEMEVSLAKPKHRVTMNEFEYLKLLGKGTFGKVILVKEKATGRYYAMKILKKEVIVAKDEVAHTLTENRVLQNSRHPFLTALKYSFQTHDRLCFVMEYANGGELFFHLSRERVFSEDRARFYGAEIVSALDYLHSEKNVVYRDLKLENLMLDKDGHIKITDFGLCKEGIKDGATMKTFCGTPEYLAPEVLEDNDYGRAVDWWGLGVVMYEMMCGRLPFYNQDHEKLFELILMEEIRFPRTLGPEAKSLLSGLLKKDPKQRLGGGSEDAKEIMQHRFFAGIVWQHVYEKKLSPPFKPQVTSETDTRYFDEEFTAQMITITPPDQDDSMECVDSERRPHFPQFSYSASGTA

SMILES	residual activity [1] [%]	residual activity [2] [%]	residual activity [3] [%]	residual activity [4] [%]	residual activity [5] [%]	residual activity [6] [%]	residual activity [7] [%]	residual activity [8] [%]	residual activity [9] [%]
Cc1cncc2cccc(S(=O)(=O)N3CCCNC[C@@H]3C)c12	64	99	72	85	86	49	80	76	105
CCn1c(-c2nonc2N)nc2cnc(Oc3cccc(NC(=O)c4ccc(OCCN5CCOCC5)cc4)c3)cc21 [GSK-269962A]	26	113	2	97	5	108	66	22	105
CC1=C(C(=O)Nc2cc3cn[nH]c3cc2F)C(c2ccc(C(F)(F)F)cc2)CC(=O)N1 (centres undefined)	72	99	24	116	81	105	109	88	102
CCN(CC)CCNC(=O)c1c(C)[nH]c(/C=C2\C(=O)Nc3ccc(F)cc32)c1C	73	–	–	–	–	–	63	–	–
